system: male C57BL/6J mice; test: Glucose excursion during oral glucose tolerance test in mice; type: in vivo; settings: OGTT in mice
Description: The effects of GPR40 agonists of Formula (B) and a GPR119 agonist of Formula (A) alone and in combination on glucose excursion during an oral glucose tolerance test were assessed in mice. The effects of the combination of a compound of Formula (A) and compounds of Formula (B) with linagliptin (a DPP-4 inhibitor) or metformin were also assessed. Male C57BL/6J mice, approximately 10 weeks old, were acclimated to the facility and the oral dosing procedure. Mice were randomized into balanced treatment groups using body weight. Baseline glucose was assessed immediately before compound administration. […] Blood was assessed for glucose levels 20 min, 40 min, 60 min, and 120 min post D-(+)-glucose administration. The AUCs for blood glucose measures were calculated for each treatment from 0 to 120 min. Statistical analysis was performed on AUCs using one-way ANOVA versus vehicle, with Tukey's post-test.

SMILES | post-prandial glucose excursion
CN(C)C(=N)N=C(N)N [metformin] | suppressed post-prandial glucose excursion

target: T1, human GPR40 (Homo sapiens, UniProt O14842); test: Inositol phosphate accumulation assay in CHO-K1 cells expressing human GPR40; type: cell-based; settings: CHO-K1 human GPR40, IP1 HTRF, 90 min
T1 construct: host or cells: CHO-K1
T1 sequence (O14842 whole entry): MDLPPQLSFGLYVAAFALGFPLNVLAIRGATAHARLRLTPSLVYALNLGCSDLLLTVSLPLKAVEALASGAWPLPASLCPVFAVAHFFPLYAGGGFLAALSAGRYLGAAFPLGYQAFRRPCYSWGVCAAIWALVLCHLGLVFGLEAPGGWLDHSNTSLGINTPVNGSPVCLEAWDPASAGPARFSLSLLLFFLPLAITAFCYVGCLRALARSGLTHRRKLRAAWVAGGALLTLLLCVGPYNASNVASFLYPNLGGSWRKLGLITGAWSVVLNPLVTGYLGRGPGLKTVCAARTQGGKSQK
Description: CHO-K1 cells expressing human GPR40 were purchased from DiscoverX (95-1005C2). HEK293 cells expressing mouse FFAR1 were prepared using a mouse FFAR1 carrying plasmid purchased from OriGene Technologies (MR222997). The cells were transfected using Lipofectamine 2000 using manufacturer instructions and stable cell line was established from a single cell using geneticine selection. Assay ready frozen (ARF) cells were prepared and used throughout the study.
The assay was performed in a 384-well plate format using IP1 assay kit from Cis-Bio. ARF cells expressing FFAR1 (mouse and human) were thawed, washed and then plated in the appropriate medium (F12 based medium for CHO hFFAR1 and DMEM based medium for HEK293 mFFAR1—both were supplemented with 10% FBS and penicillin/streptomycin). 20 μL of 3.5×10^5 cells/mL were plated on a Poly D-Lysine coated 384-well white plate. The cells were then incubated for 16 hr at 37° C./5% CO2. After 16 hr the medium was removed and 15 μL of stimulation buffer containing the test compounds was added to the cells. The plates were then incubated for 90 min at 37° C./5% CO2. 5 μL of detection buffer (prepared as described in the IP-one kit) was added to each well and the plates were incubated at RT for 1 hr.
[…] was measured using ClarioSTAR plate reader, calculating the ratio between emissions at 665 nm and 620 nm (HTRF ratio). HTRF ratio for positive (Max) and negative (Min) controls were used to normalize HTRF data and generate values for % activity. EC50 and Max activity values were determined using a standard 4-parameter fit.

SMILES | EC50 [nM]
COc1ccc(F)c([C@H]2CC[C@H](COc3cccc([C@H](C[P@@](C)(=O)O)C4CC4)c3)CC2)c1 (single isomer, unassigned) [Compound B3] | ≤ 50
COc1ccc(F)c([C@H]2CC[C@H](COc3cccc([C@@H](C[P@@](C)(=O)O)C4CC4)c3)CC2)c1 (single isomer, unassigned) [Compound B4] | 50 to 250

Other lines, results leading:

EC50 [nM] | SMILES
≤ 50 | COc1ccc(F)c([C@H]2CC[C@H](COc3cc([C@@H](CP(C)(=O)O)C4CC4)ccn3)CC2)c1 [Compound B5, ((S)-2-cyclopropyl-2-(2-(((trans)-4-(2-fluoro-5-methoxyphenyl)cyclohexyl)methoxy)pyridin-4-yl)ethyl)(methyl)phosphinic acid]
≤ 50 | COc1ccc(CCCC(C)(C)C)c(N2CCC(COc3cccc([C@@H](CP(C)(=O)O)C4CC4)c3)CC2)c1 [Compound B6, ((S)-2-cyclopropyl-2-(3-((1-(2-(4,4-dimethylpentyl)-5-methoxyphenyl)piperidin-4-yl)methoxy)phenyl)ethyl)(methyl)phosphinic acid]
≤ 50 | COc1ccc(CCCC(C)(C)C)c(N2CCC(COc3cc([C@@H](CP(C)(=O)O)C4CC4)ccn3)CC2)c1 [Compound B7, ((S)-2-cyclopropyl-2-(2-((1-(2-(4,4-dimethylpentyl)-5-methoxyphenyl)piperidin-4-yl)methoxy)pyridin-4-yl)ethyl)(methyl)phosphinic acid]
≤ 50 | COc1ccc(CCCC(C)(C)C)c(N2CCC(COc3cc([C@@H](C)CP(C)(=O)O)ccn3)CC2)c1 [Compound B8, ((R)-2-(2-((1-(2-(4,4-dimethylpentyl)-5-methoxyphenyl)piperidin-4-yl)methoxy)pyridin-4-yl)propyl)(methyl)phosphinic acid]
250 to 1000 | COc1ccc(CCCC(C)(C)C)c(N2CCC(COc3cc([C@H](C)CP(C)(=O)O)ccn3)CC2)c1 [Compound B9, ((S)-2-(2-((1-(2-(4,4-dimethylpentyl)-5-methoxyphenyl)piperidin-4-yl)methoxy)pyridin-4-yl)propyl)(methyl)phosphinic acid]
≤ 50 | COc1ccc(CCCC(C)(C)C)c(N2CCC(COc3cccc([C@H](C)CP(C)(=O)O)c3)CC2)c1 [Compound B10, ((S)-2-(3-((1-(2-(4,4-dimethylpentyl)-5-methoxyphenyl)piperidin-4-yl)methoxy)phenyl)propyl)(methyl) phosphinic acid]
50 to 250 | COc1ccc(CCCC(C)(C)C)c(N2CCC(COc3cccc([C@@H](C)CP(C)(=O)O)c3)CC2)c1 [Compound B11, ((R)-2-(3-((1-(2-(4,4-dimethylpentyl)-5-methoxyphenyl)piperidin-4-yl)methoxy)phenyl)propyl)(methyl) phosphinic acid]
250 to 1000 | CC[C@@H](Cc1cccc(OCC2CCN(c3cc(OC)ccc3CCCC(C)(C)C)CC2)c1)P(C)(=O)O [Compound B12, ((S)-1-(3-((1-(2-(4,4-dimethylpentyl)-5-methoxyphenyl)piperidin-4-yl)methoxy)phenyl)butan-2-yl)(methyl)phosphinic acid]
250 to 1000 | CC[C@H](Cc1cccc(OCC2CCN(c3cc(OC)ccc3CCCC(C)(C)C)CC2)c1)P(C)(=O)O [Compound B13, ((R)-1-(3-((1-(2-(4,4-dimethylpentyl)-5-methoxyphenyl)piperidin-4-yl)methoxy)phenyl)butan-2-yl)(methyl)phosphinic acid]

target: T2, human GPR119 (hGPR119) (Homo sapiens, UniProt Q8TDV5); test: cAMP accumulation assay in CHO-K1 cells stably expressing hGPR119; type: cell-based; settings: cAMP HTRF, 60 minutes
T2 construct: expressed in transfected cells; host or cells: CHO-K1
T2 sequence (Q8TDV5 1-335): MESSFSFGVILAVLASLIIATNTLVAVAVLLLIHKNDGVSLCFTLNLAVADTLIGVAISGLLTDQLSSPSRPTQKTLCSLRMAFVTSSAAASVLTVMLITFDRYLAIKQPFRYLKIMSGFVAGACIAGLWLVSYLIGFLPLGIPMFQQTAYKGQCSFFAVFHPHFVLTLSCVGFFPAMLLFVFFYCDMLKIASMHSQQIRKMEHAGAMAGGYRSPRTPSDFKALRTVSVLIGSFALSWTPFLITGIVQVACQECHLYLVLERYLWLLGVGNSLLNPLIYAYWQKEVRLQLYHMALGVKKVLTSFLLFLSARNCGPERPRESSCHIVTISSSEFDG
How it was run: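 Assay-ready frozen CHO-K1 cells stably expressing hGPR119, ~10,000 cells/well, were exposed to compounds for 60 min at 37 °C in stimulation buffer with Tween 80. cAMP was measured by HTRF (665/620 nm ratio) and normalized to Max/Min controls as % activity. EC50 and Max activity came from a 4-parameter fit.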

EC50 [nM] | SMILES
≤ 100 | O=C(Cc1ccc(OCCCC2CCN(c3ncc(Cl)cn3)CC2)cc1F)N1CC(CNC[C@H](O)[C@@H](O)[C@H](O)CO)C1 [Compound A61, 2-[4-[3-[1-(5-chloropyrimidin-2-yl)-4-piperidyl]propoxy]-2-fluoro-phenyl]-1-[3-[[[(2S,3R,4R)-2,3,4,5-tetrahydroxypentyl]amino]methyl]azetidin-1-yl]ethanone]
≤ 100 | O=C(Cc1ccc(OCCCC2CCN(c3ncc(Cl)cn3)CC2)cc1F)N1CC(CNC[C@@H](O)[C@H](O)[C@H](O)CO)C1 [Compound A62, 2-[4-[3-[1-(5-chloropyrimidin-2-yl)-4-piperidyl]propoxy]-2-fluoro-phenyl]-1-[3-[[[(2R,3S,4R)-2,3,4,5-tetrahydroxypentyl]amino]methyl]azetidin-1-yl]ethanone]
100 to 1000 | O=C(NCCS(=O)(=O)O)C1CN(C(=O)Cc2ccc(OCCCC3CCN(c4ncc(Cl)cn4)CC3)cc2F)C1 [Compound A63, 2-[[1-[2-[4-[3-[1-(5-chloropyrimidin-2-yl)-4-piperidyl]propoxy]-2-fluoro-phenyl]acetyl]azetidine-3-carbonyl]amino]ethanesulfonic acid]
≤ 100 | O=C(NCCCS(=O)(=O)O)C1CN(C(=O)Cc2ccc(OCCCC3CCN(c4ncc(Cl)cn4)CC3)cc2F)C1 [Compound A64, 3-[[1-[2-[4-[3-[1-(5-chloropyrimidin-2-yl)-4-piperidyl]propoxy]-2-fluoro-phenyl]acetyl]azetidine-3-carbonyl]amino]propane-1-sulfonic acid]
100 to 1000 | O=C(NCCCCCS(=O)(=O)O)C1CN(C(=O)Cc2ccc(OCCCC3CCN(c4ncc(Cl)cn4)CC3)cc2F)C1 [Compound A66, 5-[[1-[2-[4-[3-[1-(5-chloropyrimidin-2-yl)-4-piperidyl]propoxy]-2-fluoro-phenyl]acetyl]azetidine-3-carbonyl]amino]pentane-1-sulfonic acid]
100 to 1000 | O=C(NCCCCCCS(=O)(=O)O)C1CN(C(=O)Cc2ccc(OCCCC3CCN(c4ncc(Cl)cn4)CC3)cc2F)C1 [Compound A67, 6-[[1-[2-[4-[3-[1-(5-chloropyrimidin-2-yl)-4-piperidyl]propoxy]-2-fluoro-phenyl]acetyl]azetidine-3-carbonyl]amino]hexane-1-sulfonic acid]
100 to 1000 | O=C(CC1CN(C(=O)Cc2ccc(OCCCC3CCN(c4ncc(Cl)cn4)CC3)cc2F)C1)NCCS(=O)(=O)O [Compound A68, 2-[[2-[1-[2-[4-[3-[1-(5-chloropyrimidin-2-yl)-4-piperidyl]propoxy]-2-fluoro-phenyl]acetyl]azetidin-3-yl]acetyl]amino]ethanesulfonic acid]
100 to 1000 | O=C(CC1CN(C(=O)Cc2ccc(OCCCC3CCN(c4ncc(Cl)cn4)CC3)cc2F)C1)NCCCS(=O)(=O)O [Compound A69, 3-[[2-[1-[2-[4-[3-[1-(5-chloropyrimidin-2-yl)-4-piperidyl]propoxy]-2-fluoro-phenyl]acetyl]azetidin-3-yl]acetyl]amino]propane-1-sulfonic acid]
100 to 1000 | O=C(CC1CN(C(=O)Cc2ccc(OCCCC3CCN(c4ncc(Cl)cn4)CC3)cc2F)C1)NCCCCS(=O)(=O)O [Compound A70, 4-[[2-[1-[2-[4-[3-[1-(5-chloropyrimidin-2-yl)-4-piperidyl]propoxy]-2-fluoro-phenyl]acetyl]azetidin-3-yl]acetyl]amino]butane-1-sulfonic acid]
≤ 100 | O=C(CC1(O)CN(C(=O)Cc2ccc(OCCCC3CCN(c4ncc(Cl)cn4)CC3)cc2F)C1)NCC(CO)(CO)CO [Compound A71, 2-[1-[2-[4-[3-[1-(5-chloropyrimidin-2-yl)-4-piperidyl]propoxy]-2-fluoro-phenyl]acetyl]-3-hydroxy-azetidin-3-yl]-N-[3-hydroxy-2,2-bis(hydroxymethyl)propyl]acetamide]
≤ 100 | O=C(Cc1ccc(OCCCC2CCN(c3ncc(Cl)cn3)CC2)cc1F)N1CC(O)(CNC[C@H](O)[C@H](O)[C@H](O)CO)C1 [Compound A72, 2-[4-[3-[1-(5-chloropyrimidin-2-yl)-4-piperidyl]propoxy]-2-fluoro-phenyl]-1-[3-hydroxy-3-[[[(2S,3S,4R)-2,3,4,5-tetrahydroxypentyl]amino]methyl]azetidin-1-yl]ethanone]

Source: patent publication US20260191858A1, “COMBINATION THERAPIES” (Kallyope, Inc., priority 2022, published 2026)
